Laboratory results from patent publication US20080311076A1, “Morpholinylanilinoquinazoline Derivatives For Use As Antiviral Agents” (ARROW THERAPEUTICS LIMITED, priority 2004, published 2008).

The molecules below were run on HCV replicon cells Huh 9B (assay: HCV replicon assay (luciferase) in Huh 9B replicon cells). Conditions: Hepatitis C virus; concentration reducing replicon level (luciferase activity) by 50% vs untreated cell control; 72 h incubation.
Format: cell-based
Experimental: HCV replicon cells Huh 9B (ReBlikon), containing the firefly luciferase—ubiquitin—neomycin phosphotransferase fusion protein and EMCV-IRES driven HCV polyprotein with cell culture adaptive mutations.
Cells were cultured at 37° C. in a 5% CO2 environment and split twice a week on seeding at 2×10E6 cells/flask on day 1 and 1×10E6 3 days later. Some 0.25 mg/ml G418 was added to the culture medium (125 ul per 25 ml) but not the assay medium.
The culture medium consisted of DMEM with […] glucose and glutamax (Gibco 61965-026) supplemented with 1× non-essential amino acids, penicillin (100 IU/ml)/streptomycin (100 μg/ml), FCS (10%, 50 ml) and 1 mg/ml G418 (Invitrogen cat no 10131-027) & 10% foetal calf serum.
A flask of cells was trypsinised and a cell count carried out. Cells were diluted to 100,000 cells/ml and 100 μl of this used to seed one opaque white 96-well plate (for the replicon assay) and one flat-bottomed clear plate (for the tox assay) for every seven compounds to be tested for IC50. Wells G12 and H12 were left empty in the clear plate as the blank. Plates were then incubated at 37° C. in a 5% CO2 environment for 24 h.
On the following day compound dilutions are made up in medium at twice their desired final concentration in a clear round bottomed plate. All dilutions have a final DMSO concentration of 1%.
Once the dilution plate had been made up, controls and compounds were transferred to the assay plate (containing the cells) at 100 μl/well in duplicate plates.
Exception: in the white (replicon) plate, no compound was added to wells A1 and A2 and 100 μl of 1% DMSO was added to these instead. In the clear (Tox) plate, wells E12 & F12 only contained the DMSO control. Plates were then incubated at 37° C. with 5% CO2 for 72 h.
At the end of the incubation time, the cells in the white plate were harvested by washing with 200 μl/well of warm (37° C.) PBS and lysed with 20 μl cell culture lysis buffer (Promega). After 5 min incubation @ RT, luciferin solution was added to the luciferase assay buffer (LARB at 200 μl per 10 ml LARB. The M injector of the microplate luminometer (Lmax, Molecular Devices) was primed with […] injections. Plate were inserted into the luminometer and 100 μl luciferase assay reagent was added by the injector on the luminometer. The signal was measured using a 1 second delay followed by a 4 second measurement programme. The IC50, the concentration of the drug required for reducing the replicon level by 50% in relation to the untreated cell control value, can be calculated from the plot of the percentage reduction of the luciferase activity vs. drug concentration.

For `COc1cc(Nc2ncnc3ccc(-c4cccs4)cc23)ccc1N1CCOCC1` [Example 42, (3-Methoxy-4-morpholin-4-yl-phenyl)-(6-thiophen-2-yl-quinazolin-4-yl)-amine], which IC50 is on record?
Its IC50 is < 1 µM.

With `Cc1cc(N2CCOCC2)ccc1Nc1ncnc2ccc(-c3cccs3)cc12` [Example 43, (2-Methyl-4-morpholin-4-yl-phenyl)-(6-thiophen-2-yl-quinazolin-4-yl)-amine] as the molecule, how does the IC50 read?
The IC50 was < 1 µM.

Which IC50 does the source give for `Cc1cc(Nc2ncnc3ccc(-c4cccs4)cc23)ccc1N1CCOCC1` [Example 44, (3-Methyl-4-morpholin-4-yl-phenyl)-(6-thiophen-2-yl-quinazolin-4-yl)-amine] here?
Its IC50 is < 1 µM.

For `CCN(c1ccc(N2CCOCC2)cc1)c1ncnc2ccc(-c3cccs3)cc12` [Example 45, Ethyl-(4-morpholin-4-yl-phenyl)-(6-thiophen-2-yl-quinazolin-4-yl)-amine], which IC50 is on record?
Its IC50 is < 5 µM.

For `CN(c1ccc(N2CCOCC2)cc1)c1ncnc2ccc(I)cc12` [Example 46, (6-Iodo-quinazolin-4-yl)-methyl-(4-morpholin-4-yl-phenyl)amine], which IC50 is on record?
Its IC50 is < 1 µM.

How did the IC50 turn out when `CC(C)CCN(c1ccc(N2CCOCC2)cc1)c1ncnc2ccc(I)cc12` [Example 47, (6-Iodo-quinazolin-4-yl)-(3-methyl-butyl)-(4-morpholin-4-yl-phenyl)-amine] was run?
Its IC50 is < 5 µM.

How did the IC50 turn out when `CC(C)N(c1ccc(N2CCOCC2)cc1)c1ncnc2ccc(-c3cccs3)cc12` [Example 48, Isopropyl-(4-morpholin-4-yl-phenyl)-(6-thiophen-2-yl-quinazolin-4-yl)-amine] was run?
Its IC50 is < 5 µM.

For `CC(C)CCN(c1ccc(N2CCOCC2)cc1)c1ncnc2ccc(-c3cccs3)cc12` [Example 49, (3-Methyl-butyl)-(4-morpholin-4-yl-phenyl)-(6-thiophen-2-yl-quinazolin-4-yl)-amine], which IC50 is on record?
The IC50 was < 5 µM.

With `c1ccc(COc2ccccc2-c2ccc3ncnc(Nc4ccc(N5CCOCC5)cc4)c3c2)cc1` [Example 50, [6-(2-Benzyloxy-phenyl)-quinazolin-4-yl]-(4-morpholin-4-yl-phenyl)-amine] as the molecule, how does the IC50 read?
The IC50 was < 5 µM.

For `c1ccc(COc2ccc(-c3ccc4ncnc(Nc5ccc(N6CCOCC6)cc5)c4c3)cc2)cc1` [Example 51, [6-(4-Benzyloxy-phenyl)-quinazolin-4-yl]-(4-morpholin-4-yl-phenyl)-amine], which IC50 is on record?
The IC50 was < 5 µM.
